Data on 19 compounds can be found in patent US9169254B2, “Spiroimidazolone derivative” (Chugai Seiyaku Kabushiki Kaisha, priority 2009, dated 2015).

The target in the assay is T1, human PTH1 receptor (Homo sapiens, UniProt Q03431).
T1 sequence (Q03431 27-593): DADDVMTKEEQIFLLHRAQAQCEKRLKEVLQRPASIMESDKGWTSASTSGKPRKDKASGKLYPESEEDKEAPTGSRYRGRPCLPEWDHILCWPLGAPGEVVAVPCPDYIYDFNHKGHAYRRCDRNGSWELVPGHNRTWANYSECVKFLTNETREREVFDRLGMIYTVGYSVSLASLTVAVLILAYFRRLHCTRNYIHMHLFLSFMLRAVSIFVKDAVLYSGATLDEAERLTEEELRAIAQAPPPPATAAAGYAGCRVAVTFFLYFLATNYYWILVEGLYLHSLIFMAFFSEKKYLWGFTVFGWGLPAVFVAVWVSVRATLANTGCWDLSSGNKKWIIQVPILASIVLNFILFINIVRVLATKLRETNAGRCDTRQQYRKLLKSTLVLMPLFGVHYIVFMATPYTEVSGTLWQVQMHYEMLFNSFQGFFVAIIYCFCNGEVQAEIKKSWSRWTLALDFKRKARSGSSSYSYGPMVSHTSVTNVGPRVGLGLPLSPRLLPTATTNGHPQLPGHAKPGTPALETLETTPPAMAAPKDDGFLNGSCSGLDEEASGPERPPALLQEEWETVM
The experiment in a line: In vitro cAMP signal activity in HKRK-B7 cells (LLC-PK1 cells overexpressing the human PTH1 receptor). The format is cell-based. Conditions: HKRK-B7 cells; compound at 1×10^−3 M; cAMP produced as percentage of that produced by hPTH(1-34) at 100 nM.

With `Cc1cc(CC(N)=O)ccc1/C=C/S(=O)(=O)N1CCC2(CC1)N=C(C1CCC(C)CC1)NC2=O` (stereo not shown) [Compound 737, 2-(3-Methyl-4-{(E)-2-[2-(4-methyl-cyclohexyl)-4-oxo-1,3,8-triaza-spiro[4.5]dec-1-ene-8-sulfonyl]-vinyl}-phenyl)-acetamide], the “cAMP production activity (%)” value is reported as 96%.
As to `Cc1cc(N(C(N)=O)C2CCCC2)ccc1/C=C/S(=O)(=O)N1CCC2(CC1)N=C(c1cccc(OC(F)(F)F)c1)NC2=O` [Compound 730, 1-cyclopentyl-1-(3-methyl-4-{(E)-2-[4-oxo-2-(3-trifluoromethoxy-phenyl)-1,3,8-triaza-spiro[4.5]dec-1-ene-8-sulfonyl]-vinyl}-phenyl)-urea], the “cAMP production activity (%)” value turned out to be 74%.
In the case of `Cc1cc(N(C)C(N)=O)cc(C)c1/C=C/S(=O)(=O)N1CCC2(CC1)N=C(c1cccc(SC(F)(F)F)c1)NC2=O` [Compound 1305, 1-(3,5-dimethyl-4-{(E)-2-[4-oxo-2-(3-trifluoromethylsulfanyl-phenyl)-1,3,8-triaza-spiro[4.5]dec-1-ene-8-sulfonyl]-vinyl}-phenyl)-1-methyl-urea] it was 138%; in that of `Cc1cc(N(C)c2ncc[nH]2)cc(C)c1/C=C/S(=O)(=O)N1CCC2(CC1)N=C(C1CCC(C)CC1)NC2=O` (stereo not shown) [Compound 586, 8-((E)-2-{4-[(1H-imidazol-2-yl)-methyl-amino]-2,6-dimethyl-phenyl}-ethenesulfonyl)-2-(4-methyl-cyclohexyl)-1,3,8-triaza-spiro[4.5]dec-1-en-4-one], 82%; in that of `O=C1NC(C2CCCN(S(=O)(=O)Cc3ccccc3)C2)=NC12CCN(S(=O)(=O)CCc1cccc3ccccc13)CC2` (stereo not shown) [Compound 43, 8-(2-naphthalen-1-yl-ethanesulfonyl)-2-(1-phenylmethanesulfonyl-piperidin-3-yl)-1,3,8-triaza-spiro[4.5]dec-1-en-4-one], 39%.
In the case of `O=C1NC(C2CCCCC2)=NC12CCN(S(=O)(=O)c1cccc3ccccc13)CC2` [Compound 57, 2-cyclohexyl-8-(naphthalene-1-sulfonyl)-1,3,8-triaza-spiro[4.5]dec-1-en-4-one] it was 35%; in that of `O=C1NC(C2CCCCC2)=NC12CCN(S(=O)(=O)/C=C/c1cccc(F)c1C(F)(F)F)CC2` [Compound 185, 2-cyclohexyl-8-[(E)-2-(3-fluoro-2-trifluoromethyl-phenyl)-ethenesulfonyl]-1,3,8-triaza-spiro[4.5]dec-1-en-4-one], 33%.
In the case of `CNc1cc(C)c(CCS(=O)(=O)N2CCC3(CC2)N=C(C2CCC(=C(C)C)CC2)NC3=O)c(C)c1` (stereo not shown) [Compound 1037, 8-[2-(2,6-Dimethyl-4-methylamino-phenyl)-ethanesulfonyl]-2-(4-isopropylidene-cyclohexyl)-1,3,8-triaza-spiro[4.5]dec-1-en-4-one], the “cAMP production activity (%)” value was 87%.
For `COCc1cc(NC(C)=O)ccc1/C=C/S(=O)(=O)N1CCC2(CC1)N=C(C1CCC(C)CC1)NC2=O` (stereo not shown) [Compound 512, N-(3-methoxymethyl-4-{(E)-2-[2-(4-methyl-cyclohexyl)-4-oxo-1,3,8-triaza-spiro[4.5]dec-1-ene-8-sulfonyl]-vinyl}-phenyl)-acetamide] the value was 49%; for `CC(=O)NCc1ccc(CCS(=O)(=O)N2CCC3(CC2)N=C(C2CCC(CCC(F)(F)F)CC2)NC3=O)c(C)c1` (stereo not shown) [Compound 1394, N-[3-Methyl-4-(2-{4-oxo-2-[4-(3,3,3-trifluoro-propyl)-cyclohexyl]-1,3,8-triaza-spiro[4.5]dec-1-ene-8-sulfonyl}-ethyl)-benzyl]-acetamide], 82%.
As for `Cc1c(O)cccc1/C=C/S(=O)(=O)N1CCC2(CC1)N=C(c1cccc(OC(F)(F)F)c1)NC2=O` [Compound 226, 8-[(E)-2-(3-Hydroxy-2-methyl-phenyl)-ethenesulfonyl]-2-(3-trifluoromethoxy-phenyl)-1,3,8-triaza-spiro[4.5]dec-1-en-4-one], the “cAMP production activity (%)” value was determined as 83%.
For `Cc1cc(CN)cc(C)c1/C=C/S(=O)(=O)N1CCC2(CC1)N=C(C1CCC(C)CC1)NC2=O` (stereo not shown) [Compound 1291, 8-[(E)-2-(4-aminomethyl-2,6-dimethyl-phenyl)-ethenesulfonyl]-2-(4-methyl-cyclohexyl)-1,3,8-triaza-spiro[4.5]dec-1-en-4-one] the value was 48%.
As for `Cc1cc(C(=O)N(C)C)ccc1CCS(=O)(=O)N1CCC2(CC1)N=C(c1cccc(Cl)c1C)NC2=O` [Compound 133, 4-{2-[2-(3-chloro-2-methyl-phenyl)-4-oxo-1,3,8-triaza-spiro[4.5]dec-1-ene-8-sulfonyl]-ethyl}-3,N,N-trimethyl-benzamide], the “cAMP production activity (%)” value came out at 82%.
In the case of `Cc1cc(N(CCN(C)C)S(C)(=O)=O)cc(C)c1/C=C/S(=O)(=O)N1CCC2(CC1)N=C(c1cccc(OC(F)(F)F)c1)NC2=O` [Compound 609, N-(2-dimethylamino-ethyl)-N-(3,5-dimethyl-4-{(E)-2-[4-oxo-2-(3-trifluoromethoxy-phenyl)-1,3,8-triaza-spiro[4.5]dec-1-ene-8-sulfonyl]-vinyl}-phenyl)-methane sulfonamide] it was 46%; in that of `CC(=O)NCc1cc(C)c(CCS(=O)(=O)N2CCC3(CC2)N=C(C2CCC(CCC(F)(F)F)CC2)NC3=O)c(C)c1` (stereo not shown) [Compound 772, N-[3,5-dimethyl-4-(2-{4-oxo-2-[4-(3,3,3-trifluoro-propyl)-cyclohexyl]-1,3,8-triaza-spiro[4.5]dec-1-ene-8-sulfonyl}-ethyl)-benzyl]-acetamide], 69%.
For `Cc1cc(N(C)C(N)=O)cc(C)c1/C=C/S(=O)(=O)N1CCC2(CC1)N=C(CCCCCCCCC(F)F)NC2=O` [Compound 1321, 1-(4-{(E)-2-[2-(9,9-Difluoro-nonyl)-4-oxo-1,3,8-triaza-spiro[4.5]dec-1-ene-8-sulfonyl]-vinyl}-3,5-dimethyl-phenyl)-1-methyl-urea] the value was 63%; for `Cc1cc(C2=NC3(CCN(S(=O)(=O)CCc4ccc(C(=O)N(C)C)cc4C)CC3)C(=O)N2)ccc1Cl` [Compound 95, 4-{2-[2-(4-chloro-3-methyl-phenyl)-4-oxo-1,3,8-triaza-spiro[4.5]dec-1-ene-8-sulfonyl]-ethyl}-3,N,N-trimethyl-benzamide], 76%.
In the case of `CN(CCO)c1ccc(/C=C/S(=O)(=O)N2CCC3(CC2)N=C(C2CCCCC2)NC3=O)c(C(F)(F)F)c1` [Compound 501, 2-cyclohexyl-8-((E)-2-{4-[(2-hydroxy-ethyl)-methyl-amino]-2-trifluoromethyl-phenyl}-ethenesulfonyl)-1,3,8-triaza-spiro[4.5]dec-1-en-4-one] it was 59%; in that of `O=C1NC(C2CCCCC2)=NC12CCN(S(=O)(=O)CCc1cccc3c1ccn3CCC(O)CO)CC2` (stereo not shown) [Compound 748, 2-cyclohexyl-8-{2-[1-(3,4-dihydroxy-butyl)-1H-indol-4-yl]-ethanesulfonyl}-1,3,8-triaza-spiro[4.5]dec-1-en-4-one], 61%.
